From ChEMBL document CHEMBL1201862, “PubChem BioAssay data set” (2004)
Blank lines part the entries; values can stand above or below the compound they belong to. Activity calls are given as the source filed them.

How the values were obtained:
[1] = system: BJ; experiment: cells; format: functional, cell-based; settings: Homo sapiens
[2] = system: H9c2; experiment: cells; format: functional, cell-based; settings: Rattus norvegicus, H9c2, Myocardium;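 also: confirmatory concentration-response retest of ultra-high-throughput screening hits for modulation of myocardial damage; cell death induced by hydrogen peroxide oxidative stress; compound pretreatment for 60 min then peroxide exposure for 2 h; potency is for protecting the cells against peroxide damage rather than for killing them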
[3] = Counterscreen for AddAB inhibitors: absorbance-based bacterial cell-based high throughput dose response assay for inhibitors of bacterial viability. [Related pubchem assays (depositor defined):AID435030, AID449728, AID449731, AID488942, AID488955, AID488956]; format: functional
[4] = NIH-3T3 fibroblast cytotoxicity, dose response, cytotoxicity control, cell-based, fluorescence, Alamar Blue, secondary assay (AID 2327); format: functional;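 also: NIH-3T3 mouse fibroblasts cultured with fluconazole at 8 µg/mL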
[5] = biological target: Vascular endothelial growth factor receptor 2 (Homo sapiens, UniProt P35968); format: functional
[6] = biological target: RAC-gamma serine/threonine-protein kinase (Homo sapiens, UniProt Q9Y243); format: functional
[7] = biological target: Proto-oncogene tyrosine-protein kinase Src (Homo sapiens, UniProt P12931); format: functional;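 also: SRC entry within a kinome-wide kinase profiling panel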
[8] = biological target: Megakaryocyte-associated tyrosine-protein kinase (Homo sapiens, UniProt P42679); format: functional;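 also: affinity measured as one member of a kinase panel (Navigating the Kinome) against MATK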
[9] = biological target: Casein kinase I isoform alpha (Homo sapiens, UniProt P48729); format: functional
[10] = biological target: Glycogen synthase kinase-3 alpha (Homo sapiens, UniProt P49840); format: functional;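 also: GSK3A result taken from a broad kinome-wide kinase panel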
[11] = biological target: BDNF/NT-3 growth factors receptor (Homo sapiens, UniProt Q16620); format: functional;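 also: NTRK2 measured as one member of a broad kinome-wide kinase profiling panel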
[12] = biological target: Serine/threonine-protein kinase DCLK1 (Homo sapiens, UniProt O15075); format: functional;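 also: affinity for DCLK1 (listed as DCAMKL1) measured as one member of a kinome-wide kinase profiling panel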
[13] = biological target: High affinity nerve growth factor receptor (Homo sapiens, UniProt P04629); format: functional;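 also: NTRK1 tested as one member of a kinome-wide profiling panel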
[14] = biological target: Insulin-like growth factor 1 receptor (Homo sapiens, UniProt P08069); experiment: Navigating the Kinome. Panel member name: IGF1R; format: functional
[15] = biological target: Serine/threonine-protein kinase TAO1 (Homo sapiens, UniProt Q7L7X3); format: functional
[16] = biological target: Tyrosine-protein kinase SYK (Homo sapiens, UniProt P43405); format: functional
[17] = biological target: Interleukin-1 receptor-associated kinase 4 (Homo sapiens, UniProt Q9NWZ3); format: functional
[18] = biological target: Casein kinase I isoform delta (Homo sapiens, UniProt P48730); format: functional;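 also: measured as one member (CSNK1D) of a kinome panel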
[19] = biological target: Serine/threonine-protein kinase 3 (Homo sapiens, UniProt Q13188); format: functional;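 also: measured as one member of a kinome-wide kinase panel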
[20] = biological target: Mitogen-activated protein kinase 12 (Homo sapiens, UniProt P53778); format: functional;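 also: measured as one member of a kinome-wide kinase profiling panel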
[21] = biological target: Mitogen-activated protein kinase 8 (Homo sapiens, UniProt P45983); format: functional;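 also: value comes from one member of a kinome-wide kinase profiling panel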
[22] = biological target: Dual specificity protein kinase CLK2 (Homo sapiens, UniProt P49760); format: functional
[23] = biological target: Tyrosine-protein kinase JAK2 (Homo sapiens, UniProt O60674); format: functional;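 also: JAK2 tested as one member of a kinase panel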
[24] = biological target: Lymphokine-activated killer T-cell-originated protein kinase (Homo sapiens, UniProt Q96KB5); format: functional;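 also: value comes from a kinase panel screen in which TOPK was one of the panel members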
[25] = biological target: Interleukin-1 receptor-associated kinase 1 (Homo sapiens, UniProt P51617); format: functional;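 also: IRAK1 tested as one member of a kinome panel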
[26] = biological target: Aurora kinase A (Homo sapiens, UniProt O14965); format: functional;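 also: value from the Navigating the Kinome kinase panel profiling, panel entry STK6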
[27] = biological target: MAP/microtubule affinity-regulating kinase 3 (Homo sapiens, UniProt P27448); format: functional;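 also: MARK3 affinity measured as one member of a kinome panel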
[28] = biological target: Ribosomal protein S6 kinase beta-1 (Homo sapiens, UniProt P23443); format: functional;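 also: measured as one member of a kinome-wide profiling panel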
[29] = biological target: Serine/threonine-protein kinase Chk1 (Homo sapiens, UniProt O14757); format: functional;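 also: measured as one member of a kinome-wide kinase profiling panel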
[30] = biological target: Tyrosine-protein kinase Blk (Homo sapiens, UniProt P51451); format: functional;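 also: obtained as one member of a kinome-wide kinase assay panel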
[31] = biological target: Tyrosine-protein kinase FRK (Homo sapiens, UniProt P42685); format: functional;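 also: FRK tested as one member of a kinome panel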
[32] = biological target: Testis-specific serine/threonine-protein kinase 2 (Homo sapiens, UniProt Q96PF2); format: functional;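 also: part of the Navigating the Kinome panel, target entry STK22B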
[33] = biological target: Receptor tyrosine-protein kinase erbB-2 (Homo sapiens, UniProt P04626); experiment: Navigating the Kinome. Panel member name: ERBB2; format: functional
[34] = biological target: Fibroblast growth factor receptor 3 (Homo sapiens, UniProt P22607); format: functional
[35] = biological target: Calcium/calmodulin-dependent protein kinase type 1 (Homo sapiens, UniProt Q14012); format: functional
[36] = biological target: Proto-oncogene tyrosine-protein kinase ROS (Homo sapiens, UniProt P08922); format: functional;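 also: ROS1 tested as one member of a kinome-wide kinase panel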
[37] = biological target: Serine/threonine-protein kinase PAK 1 (Homo sapiens, UniProt Q13153); format: functional
[38] = biological target: Non-receptor tyrosine-protein kinase TYK2 (Homo sapiens, UniProt P29597); format: functional
[39] = biological target: Serine/threonine-protein kinase 17A (Homo sapiens, UniProt Q9UEE5); format: functional
[40] = biological target: Casein kinase II subunit alpha (Homo sapiens, UniProt P68400); format: functional
[41] = biological target: ALK tyrosine kinase receptor (Homo sapiens, UniProt Q9UM73); format: functional;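 also: ALK tested as one member of a kinase panel screen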
[42] = biological target: MAP kinase-activated protein kinase 2 (Homo sapiens, UniProt P49137); format: functional;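 also: measured as one member of a kinome-wide kinase panel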
[43] = biological target: Insulin receptor (Homo sapiens, UniProt P06213); format: functional;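 also: insulin receptor kinase tested as one member of a kinome-wide kinase panel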
[44] = biological target: Protein kinase C delta type (Homo sapiens, UniProt Q05655); format: functional
[45] = biological target: Tyrosine-protein kinase Lck (Homo sapiens, UniProt P06239); format: functional;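 also: lck was assayed as one member of a kinase panel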
[46] = biological target: Death-associated protein kinase 3 (Homo sapiens, UniProt O43293); format: functional;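 also: measured as one member of a kinome-wide profiling panel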

Chain of MAP/microtubule affinity-regulating kinase 3 (P27448 whole entry): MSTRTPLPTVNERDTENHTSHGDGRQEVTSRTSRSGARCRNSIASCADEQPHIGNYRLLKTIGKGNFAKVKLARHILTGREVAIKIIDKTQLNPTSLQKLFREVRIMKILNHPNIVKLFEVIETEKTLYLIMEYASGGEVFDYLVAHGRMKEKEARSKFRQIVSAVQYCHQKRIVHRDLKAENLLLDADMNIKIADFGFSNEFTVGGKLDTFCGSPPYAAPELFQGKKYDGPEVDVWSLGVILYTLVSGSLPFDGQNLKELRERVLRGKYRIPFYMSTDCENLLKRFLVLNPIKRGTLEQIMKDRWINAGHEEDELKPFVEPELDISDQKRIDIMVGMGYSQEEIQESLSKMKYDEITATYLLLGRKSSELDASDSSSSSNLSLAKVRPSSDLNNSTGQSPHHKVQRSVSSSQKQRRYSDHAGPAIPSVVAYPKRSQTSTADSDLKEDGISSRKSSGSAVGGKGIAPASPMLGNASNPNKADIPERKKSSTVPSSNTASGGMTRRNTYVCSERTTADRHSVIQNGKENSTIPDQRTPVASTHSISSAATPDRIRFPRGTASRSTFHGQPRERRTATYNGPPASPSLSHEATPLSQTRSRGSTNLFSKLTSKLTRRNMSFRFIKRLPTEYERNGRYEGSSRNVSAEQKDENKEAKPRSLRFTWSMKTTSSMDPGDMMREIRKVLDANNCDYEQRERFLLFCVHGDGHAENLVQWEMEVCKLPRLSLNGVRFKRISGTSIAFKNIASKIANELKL
Chain of Casein kinase I isoform delta (P48730 whole entry, canonical isoform): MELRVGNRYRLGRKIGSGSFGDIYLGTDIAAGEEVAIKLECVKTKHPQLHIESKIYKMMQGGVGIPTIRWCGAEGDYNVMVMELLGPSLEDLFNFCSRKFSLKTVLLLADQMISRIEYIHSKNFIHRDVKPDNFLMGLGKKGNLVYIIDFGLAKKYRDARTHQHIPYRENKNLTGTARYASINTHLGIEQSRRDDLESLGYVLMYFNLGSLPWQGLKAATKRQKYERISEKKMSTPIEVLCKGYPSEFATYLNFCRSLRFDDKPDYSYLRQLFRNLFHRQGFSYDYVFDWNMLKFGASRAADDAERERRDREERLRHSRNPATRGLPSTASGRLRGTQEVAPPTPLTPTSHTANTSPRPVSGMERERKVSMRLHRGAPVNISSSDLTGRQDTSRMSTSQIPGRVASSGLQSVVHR
Chain of Insulin receptor (P06213 28-758 limits assumed): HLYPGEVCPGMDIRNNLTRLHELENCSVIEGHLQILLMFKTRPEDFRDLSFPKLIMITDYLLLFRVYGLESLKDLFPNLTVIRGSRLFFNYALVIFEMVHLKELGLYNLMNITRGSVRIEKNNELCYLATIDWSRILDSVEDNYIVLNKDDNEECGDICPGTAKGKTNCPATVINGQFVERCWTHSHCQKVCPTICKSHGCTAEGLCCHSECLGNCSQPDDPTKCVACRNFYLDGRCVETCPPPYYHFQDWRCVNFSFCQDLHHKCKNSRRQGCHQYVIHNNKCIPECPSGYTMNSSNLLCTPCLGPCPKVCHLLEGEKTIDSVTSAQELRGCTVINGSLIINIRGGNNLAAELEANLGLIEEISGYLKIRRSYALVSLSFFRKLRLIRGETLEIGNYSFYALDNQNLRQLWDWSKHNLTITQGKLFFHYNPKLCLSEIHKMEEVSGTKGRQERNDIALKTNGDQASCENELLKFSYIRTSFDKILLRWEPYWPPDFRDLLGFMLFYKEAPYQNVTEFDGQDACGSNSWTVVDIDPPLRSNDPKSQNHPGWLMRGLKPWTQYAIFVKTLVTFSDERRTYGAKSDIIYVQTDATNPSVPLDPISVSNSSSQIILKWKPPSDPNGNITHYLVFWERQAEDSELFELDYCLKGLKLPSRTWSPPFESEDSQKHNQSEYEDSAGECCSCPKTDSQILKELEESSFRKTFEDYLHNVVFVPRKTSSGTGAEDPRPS
Chain of Insulin receptor (P06213 763-1382 limits assumed): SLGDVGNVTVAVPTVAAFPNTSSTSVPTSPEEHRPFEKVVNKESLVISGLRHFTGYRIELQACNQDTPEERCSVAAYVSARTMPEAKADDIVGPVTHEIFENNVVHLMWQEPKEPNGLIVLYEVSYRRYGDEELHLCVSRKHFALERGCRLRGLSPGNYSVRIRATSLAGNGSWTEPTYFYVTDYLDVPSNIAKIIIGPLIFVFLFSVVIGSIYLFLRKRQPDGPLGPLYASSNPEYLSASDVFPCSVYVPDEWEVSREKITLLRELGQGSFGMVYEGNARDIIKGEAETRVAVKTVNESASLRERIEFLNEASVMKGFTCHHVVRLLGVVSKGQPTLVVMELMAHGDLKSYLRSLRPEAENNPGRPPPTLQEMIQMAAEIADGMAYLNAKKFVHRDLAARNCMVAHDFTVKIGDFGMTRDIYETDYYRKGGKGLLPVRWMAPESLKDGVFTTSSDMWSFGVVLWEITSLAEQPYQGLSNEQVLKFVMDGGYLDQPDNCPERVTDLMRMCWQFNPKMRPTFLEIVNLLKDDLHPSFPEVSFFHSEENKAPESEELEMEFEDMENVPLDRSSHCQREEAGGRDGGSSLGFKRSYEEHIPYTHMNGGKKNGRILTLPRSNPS
Chain of Tyrosine-protein kinase FRK (P42685 whole entry): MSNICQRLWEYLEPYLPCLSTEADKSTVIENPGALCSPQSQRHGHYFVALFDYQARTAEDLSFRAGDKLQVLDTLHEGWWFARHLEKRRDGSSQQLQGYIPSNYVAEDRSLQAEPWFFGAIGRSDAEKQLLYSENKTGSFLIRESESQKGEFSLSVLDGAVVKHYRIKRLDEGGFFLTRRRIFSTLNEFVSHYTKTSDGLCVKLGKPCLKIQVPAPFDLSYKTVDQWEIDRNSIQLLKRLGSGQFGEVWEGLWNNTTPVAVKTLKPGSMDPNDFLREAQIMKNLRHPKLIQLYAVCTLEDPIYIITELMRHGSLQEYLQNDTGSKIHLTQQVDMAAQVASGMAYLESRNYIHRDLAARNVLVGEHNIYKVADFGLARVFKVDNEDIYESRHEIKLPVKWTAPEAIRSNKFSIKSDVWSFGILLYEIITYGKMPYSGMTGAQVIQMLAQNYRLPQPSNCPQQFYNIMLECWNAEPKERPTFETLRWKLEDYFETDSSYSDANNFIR
Chain of Mitogen-activated protein kinase 8 (P45983 whole entry): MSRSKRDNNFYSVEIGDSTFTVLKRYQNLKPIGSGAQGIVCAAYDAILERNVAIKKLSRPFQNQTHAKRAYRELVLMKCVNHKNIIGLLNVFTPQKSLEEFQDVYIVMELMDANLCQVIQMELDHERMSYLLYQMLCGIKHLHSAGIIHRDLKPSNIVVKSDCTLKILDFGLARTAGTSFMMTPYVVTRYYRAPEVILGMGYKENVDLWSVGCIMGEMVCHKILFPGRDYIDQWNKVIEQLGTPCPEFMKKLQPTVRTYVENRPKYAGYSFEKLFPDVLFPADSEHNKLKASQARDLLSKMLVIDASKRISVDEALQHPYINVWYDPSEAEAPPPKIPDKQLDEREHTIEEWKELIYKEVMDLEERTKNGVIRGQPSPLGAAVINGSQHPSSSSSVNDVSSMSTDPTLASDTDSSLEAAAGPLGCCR
Chain of Glycogen synthase kinase-3 alpha (P49840 whole entry): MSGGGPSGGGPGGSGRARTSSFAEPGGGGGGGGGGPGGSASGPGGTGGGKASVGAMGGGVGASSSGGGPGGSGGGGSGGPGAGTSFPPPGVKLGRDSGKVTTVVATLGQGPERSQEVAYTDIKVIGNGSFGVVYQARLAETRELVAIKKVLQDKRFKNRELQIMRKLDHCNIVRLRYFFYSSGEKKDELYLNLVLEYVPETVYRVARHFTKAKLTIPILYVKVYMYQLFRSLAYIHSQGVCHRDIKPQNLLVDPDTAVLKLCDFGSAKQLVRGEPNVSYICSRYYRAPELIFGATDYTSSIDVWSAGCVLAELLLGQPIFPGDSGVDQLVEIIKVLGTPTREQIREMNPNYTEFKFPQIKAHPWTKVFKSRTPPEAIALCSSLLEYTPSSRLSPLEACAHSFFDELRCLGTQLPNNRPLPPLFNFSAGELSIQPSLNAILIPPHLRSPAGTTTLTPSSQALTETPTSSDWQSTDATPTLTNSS
Chain of Dual specificity protein kinase CLK2 (P49760 whole entry): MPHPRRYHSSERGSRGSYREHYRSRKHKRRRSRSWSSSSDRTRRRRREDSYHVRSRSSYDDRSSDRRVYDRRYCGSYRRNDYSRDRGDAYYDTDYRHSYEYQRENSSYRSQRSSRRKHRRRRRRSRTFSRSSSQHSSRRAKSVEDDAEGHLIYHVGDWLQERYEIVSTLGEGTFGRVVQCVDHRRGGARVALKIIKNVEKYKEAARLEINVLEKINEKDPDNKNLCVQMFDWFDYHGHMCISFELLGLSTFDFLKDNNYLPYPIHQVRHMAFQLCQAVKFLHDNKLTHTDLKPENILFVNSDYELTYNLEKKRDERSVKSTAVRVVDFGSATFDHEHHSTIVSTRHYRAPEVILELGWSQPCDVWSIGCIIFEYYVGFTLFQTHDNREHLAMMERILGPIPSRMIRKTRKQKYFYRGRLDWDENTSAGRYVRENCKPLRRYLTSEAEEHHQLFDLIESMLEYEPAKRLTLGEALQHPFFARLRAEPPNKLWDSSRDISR
Chain of MAP kinase-activated protein kinase 2 (P49137 whole entry): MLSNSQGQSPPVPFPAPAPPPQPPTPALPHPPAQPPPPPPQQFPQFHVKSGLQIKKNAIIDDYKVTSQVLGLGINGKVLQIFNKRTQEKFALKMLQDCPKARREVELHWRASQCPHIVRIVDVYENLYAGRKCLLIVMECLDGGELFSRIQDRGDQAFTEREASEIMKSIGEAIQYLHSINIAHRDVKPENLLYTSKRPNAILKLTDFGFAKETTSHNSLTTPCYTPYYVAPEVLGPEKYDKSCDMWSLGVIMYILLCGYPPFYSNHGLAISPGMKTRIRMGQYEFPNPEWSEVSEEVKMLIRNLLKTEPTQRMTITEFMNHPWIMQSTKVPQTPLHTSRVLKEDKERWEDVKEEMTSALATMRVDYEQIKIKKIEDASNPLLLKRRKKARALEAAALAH

Structure (SMILES): COc1ccc(-c2nnc(NC(=O)c3ccc(F)cc3)o2)cc1
EC50 [1]: 30.7 µM (active)
IC50 [2]: > 79 µM (inactive)
IC50 [3]: > 118 µM (inactive)
EC50 [4]: > 150 µM (inactive)

Ki [5]: > 7.94 µM (inactive)
Ki [6]: 2 µM (active)
Ki [7]: > 2 µM (inactive)
Ki [8]: > 2 µM (inactive)
Ki [9]: > 6.31 µM (inactive)
Ki [10]: 0.0501 µM (active)
Ki [11]: > 5.01 µM (inactive)
Ki [12]: > 10 µM (inactive)
Ki [13]: > 2.51 µM (inactive)
Ki [14]: > 2 µM (inactive)
Ki [15]: > 10 µM (inactive)
Ki [16]: > 1.58 µM (inactive)
Ki [17]: > 10 µM (inactive)
Ki [18]: > 7.94 µM (inactive)
Ki [19]: > 7.94 µM (inactive)
Ki [20]: > 6.31 µM (inactive)
Ki [21]: > 3.16 µM (inactive)
Ki [22]: > 7.94 µM (inactive)
Ki [23]: > 1.58 µM (inactive)
Ki [25]: > 7.94 µM (inactive)
Ki [26]: 0.501 µM (active)
Ki [27]: 1.58 µM (active)
Ki [28]: 0.00316 µM (active)
Ki [29]: > 7.94 µM (inactive)
Ki [30]: > 1.58 µM (inactive)
Ki [31]: > 2.51 µM (inactive)
Ki [32]: > 1.58 µM (inactive)
Ki [33]: > 1.58 µM (inactive)
Ki [34]: > 2 µM (inactive)
Ki [35]: > 5.01 µM (inactive)
Ki [36]: > 2 µM (inactive)
Ki [37]: > 10 µM (inactive)
Ki [38]: > 2 µM (inactive)
Ki [39]: 0.158 µM (active)
Ki [40]: > 6.31 µM (inactive)
Ki [41]: > 1.26 µM (inactive)
Ki [42]: > 7.94 µM (inactive)
Ki [43]: > 5.01 µM (inactive)
Ki [44]: 0.00501 µM (active)
Ki [45]: 2.51 µM (active)
Structure (SMILES): CCn1c(-c2nonc2N)nc2cnc(Oc3cccc(NC(=O)c4ccc(OCCN5CCOCC5)cc4)c3)cc21 [GSK-269962A]
Ki [24]: > 10 µM (inactive)
Ki [46]: 0.501 µM (active)
